Laboratory results reported in patent US6235761A, “Compound, composition and method for treating cancer” (priority 1999, dated 2001).

Assays:
MX-1 mammary tumor cells = test: ic MX-1 mammary tumor in athymic mice, increased life span (Table 2); type: in vivo, human tumor in athymic mice (Ncr-nu); details: days 1-5
Method: (§1) This Example illustrates the efficacy of penclomedine and 4-demethylpenclomedine in the treatment of cancer. MX-1 mammary tumor xenograft was subcutaneously implanted into mice, and the mice were exposed to the compounds. The testing of the mice was performed following a published procedure. See, e.g., Plowman et al., supra; Geran et al., Cancer Chemother. Rep., Part 2, 1-55 (1972); Developmental Therapeutics Program, Division of Cancer Treatment, NCI, in In Vivo Models 1976-1982, NIH Publication No. 84-2635, Washington D.C., U.S. Govt. Printing Office (1984).
(§2) This Example further illustrates the efficacy of penclomedine and 4-demethylpenclomedine in the treatment of cancer. The compounds were tested in vivo on mice by the procedure set forth in Example 2. The results obtained are set forth in Table 2 and confirm that 4-demethyl-penclomedine is active against cancer, particularly mammary, colon, and renal cancer.
(§3) ^a Athymic mice (Ncr-nu) were implanted either intracranially (ic) with
(§4) […] MX-1 mammary tumor cells or subcutaneously (sc) with fragments of
(§5) human tumors (CAKI-, renal; HT29, colon; MX-1, mammary).
^c % ILS (increased life span) values are not provided where the mice
were sacrificed when tumors reached 4 g mass.

[1] = system: mammals, especially humans; test: Neurotoxicity of penclomedine versus 4-demethylpenclomedine; type: in vivo, human; details: for neurotoxicity versus metabolite levels: administration of penclomedine to patients
Method: It has been observed that 4-demethylpenclomedine was present in clinical samples and continued to be present in the plasma for longer than 24 hours.

[2] = system: MX-1 Mammary Tumor Xenograft; test: Subcutaneously-implanted MX-1 mammary tumor xenograft in mice (Table 1); type: in vivo, human tumor in mice; details: for Days to 2 Doublings / Non-Specific Deaths / Total / Tumor Free Survival/Total / Tumor Delay (T-C) / Tumor Regression, Complete / Tumor Regression, Partial / Duration of regression, Med: x5, from Day 12; for Tumor Delay (T-C): control 8.0 days; for Tumor Regression, Complete / Tumor Regression, Partial: number of mice
Method: as §1
Response of Subcutaneously-Implanted MX-1 Mammary Tumor Xenograft to
^1 Treatment started on Day 12 following tumor implant.
^2 Nonspecific deaths: A treated, tumored animal was presumed to be a
^3 Tumor regression was scored (excluding nonspecific deaths),
^4 Duration of regression: the interval during which a tumor classified
^5 Evaluation size: this value is the tumor mass selected at one or two
^6 Time required for tumor mass doubling: the time required for a tumor
^7 T-C (days): the difference in the median of times postimplant for […]

HT29 colon tumor = test: sc HT29 colon tumor in athymic mice (Table 2); type: in vivo, human tumor in athymic mice (Ncr-nu); details: for T-C / Tumor-Free Survival/Total: days 14-18
Method: as §1, §2, §3, §4, §5
(§6) ^b The difference in the median of time poststaging for tumors to
(§7) double in mass: T (treated mice), C (control mice)

[3] = Human plasma levels of penclomedine and demethylpenclomedine during 5 day penclomedine treatment; type: in vivo, human patients
Excerpt: FIG. 1 depicts levels of penclomedine and the demethylpenclomedine metabolite in human plasma, as determined by HPLC chromatographic analysis with uv detection.
FIG. 2 depicts the penclomedine (gray shade) and demethylpenclomedine (white) levels in human plasma on each of five treatment days. Data are from a single patient and are typical. The same ordinate scale is used for both penclomedine and demethylpenclomedine. Pre-infusion levels are depicted without cross hatchings; end of infusion levels are depicted with cross hatchings.
A 1 ml aliquot of tissue homogenate or a […] was acidified with 200 ml of 0.7 M ammonium phosphate pH 2.7, then 3 ml of ethyl acetate was added. This mixture was vortexed, centrifuged and the organic layer was collected. Fifty microliters of DMSO were added, and the ethyl acetate was concentrated to approximately […] with a stream of dry nitrogen. Fifty microliters of acetonitrile were added to this residue, and the resulting solution was analyzed by HPLC. Human plasma was processed identically to mouse plasma with the exception that 500 ml of plasma was extracted. Concentrated cage washings were analyzed by HPLC without further processing.
HPLC Assays: The HPLC system consisted of a Hewlett-Packard Series II 1090 liquid chromatograph with diode array detector (Hewlett-Packard, Palo Alto, Calif.). The column used was an Alltech Adsorbosphere HS C18 5 m 250×4.6 mm column (Alltech Associates, Deerfield, Ill.). The system used a gradient elution consisting of 100% 10 mM ammonium phosphate buffer pH 2.7 progressing to 100% acetonitrile over 25 minutes at 1 ml/min. Detection was performed by means of ultraviolet absorbance at 240 nm as well as by means of radioactivity using a Radiomatic Flo-One/Beta A140 radioactive flow detector (Packard Instrument Co., Downers Grove, Ill.) equipped with a […] and Flo-Scint VI scintillation cocktail at a 2:1 ratio.
This example illustrates the distribution of penclomedine and 4-demethylpenclomedine in human plasma during a 5 day treatment schedule using penclomedine.
Plasma levels of the metabolite and penclomedine were determined in 9 patients during the 5 day treatment schedule. […] Demethylpenclomedine plasma levels were equal to penclomedine plasma levels by 10 min after end of the infusion and rose to 9.5 μM by 7 hrs. […] The ratio of demethylpenclomedine to penclomedine in the post-infusion plasma sample obtained on day 1 of treatment was approximately 1:1; however, impressive accumulation of demethylpenclomedine was noted during the five day treatment schedule and by the final day this ratio was often greater than 10. […] A summary of post-infusion demethylpenclomedine plasma levels determined on each day of treatment for 9 patients is set forth in Table 4.

MX-1 mammary tumor = test: sc MX-1 mammary tumor in athymic mice (Table 2); type: in vivo, human tumor in athymic mice (Ncr-nu)
Method: as §1, §2, §3, §4, §5, §6, §7

[4] = 135 mg/kg/dose oral, highest dosage level
[5] = 1 hr i.v. infusion penclomedine 315 mg/m^2
[6] = human plasma, single patient, FIG. 1
[7] = repeated administration of penclomedine
[8] = 135 mg/kg/dose oral, highest dosage level, days 13-17
[9] = five day samples, same patient, FIG. 2

In the case of `COc1nc(C(Cl)(Cl)Cl)c(Cl)c(O)c1Cl` [4-Demethylpenclomedine, 3,5-dichloro-2-methoxy-4-hydroxy-6-(trichloromethyl)-pyridine], the “Median % ILS (dying mice only)” value (MX-1 mammary tumor cells; 90 mg/kg/dose IP) is reported as “+60%”, the “Tumor-Free Survival/Total” value (MX-1 mammary tumor cells; 90 mg/kg/dose IP) is reported as 0/5 and the “Median % ILS (dying mice only)” value (MX-1 mammary tumor cells; [4]) is reported as “+66%”. The “Tumor-Free Survival/Total” value (MX-1 mammary tumor cells; [4]) was 1/5, the “neurotoxicity versus metabolite levels” value [1] was “the levels of this metabolite increased as toxicity due to penclomedine resolved” and the “Days to 2 Doublings” value ([2]; 60 mg/kg IP) was 23.4 days. The “Non-Specific Deaths / Total” value ([2]; 60 mg/kg IP) was 0/5, the “Tumor Free Survival/Total” value ([2]; 60 mg/kg IP) was 2/5 and the “Tumor Delay (T-C)” value ([2]; 60 mg/kg IP) was 15.4 days. For the same molecule, the “Tumor Regression, Complete” value ([2]; 60 mg/kg IP) was 2, the “Tumor Regression, Partial” value ([2]; 60 mg/kg IP) was 0 and the “Days to 2 Doublings” value ([2]; 90 mg/kg IP) was over 49.0 days. For the same molecule, the “Duration of regression, Med” value ([2]; 90 mg/kg IP) was 32.5 days, the “Non-Specific Deaths / Total” value ([2]; 90 mg/kg IP) was 0/5 and the “Tumor Free Survival/Total” value ([2]; 90 mg/kg IP) was 3/5. The “Tumor Delay (T-C)” value ([2]; 90 mg/kg IP) was over 41.0 days, the “Tumor Regression, Complete” value ([2]; 90 mg/kg IP) was 5 and the “Tumor Regression, Partial” value ([2]; 90 mg/kg IP) was 0. The “Days to 2 Doublings” value ([2]; 135 mg/kg IP) was over 49.0 days, the “Duration of regression, Med” value ([2]; 135 mg/kg IP) was 35.7 days and the “Non-Specific Deaths / Total” value ([2]; 135 mg/kg IP) was 1/5. For the same molecule, the “Tumor Free Survival/Total” value ([2]; 135 mg/kg IP) was 3/5, the “Tumor Delay (T-C)” value ([2]; 135 mg/kg IP) was over 41.0 days and the “Tumor Regression, Complete” value ([2]; 135 mg/kg IP) was 4. For the same molecule, the “Tumor Regression, Partial” value ([2]; 135 mg/kg IP) was 0, the “tumor growth delay, comparison of the two compounds” value ([2]; Table 1) was “identical tumor growth delay” and the T-C (HT29 colon tumor; 90 mg/kg/dose IP) was 6.0 days. The “Tumor-Free Survival/Total” value (HT29 colon tumor; 90 mg/kg/dose IP) was 0/5, the “activity against colon tumors (T-C)” value (HT29 colon tumor; Table 2) was “active against MX-1, colon, and renal tumors” and the “accumulation over the 5 day treatment” value ([3]; 9 patients) was “accumulation of metabolite was observed in all 9 patients”. The “time after end of infusion at which plasma levels equal those of penclomedine” value [3, 5] was at most 10 min, the “time present in plasma” value ([3]; clinical samples) was over 24 h and the “ratio of demethylpenclomedine to penclomedine in plasma” value ([3]; final day of five day schedule, often) was “greater than 10”. For the same molecule, the persistence in plasma ([3]; five day treatment schedule) was “persisted in the plasma for an extended period of time”, the “plasma level time course” value [3, 6] was “continues to increase with time” and the “drug exposure relative to parent compound” value [3, 7] was “several hundred times that of the parent compound”. For the same molecule, the “plasma level relative to peak plasma level of penclomedine” value [3, 7] was “greater than ten times the peak plasma level of penclomedine”, the T-C (MX-1 mammary tumor; 90 mg/kg/dose IP, days 12-16) was over 41.0 days and the “Tumor-Free Survival/Total” value (MX-1 mammary tumor; 90 mg/kg/dose IP, days 12-16) was 3/5. For the same molecule, the T-C (MX-1 mammary tumor; 90 mg/kg/dose IP, days 15-19) was over 37.2 days, the “Tumor-Free Survival/Total” value (MX-1 mammary tumor; 90 mg/kg/dose IP, days 15-19) was 3/5 and the T-C (MX-1 mammary tumor; [8]) was 36.7 days. For the same molecule, the “Tumor-Free Survival/Total” value (MX-1 mammary tumor; [8]) was 2/5, the “T-C, comparison of the two compounds” value (MX-1 mammary tumor; Table 2) was “nearly identical T-C” and the “activity against MX-1 tumors (T-C)” value (MX-1 mammary tumor; Table 2) was “active against MX-1, colon, and renal tumors”.

For `COc1nc(C(Cl)(Cl)Cl)c(Cl)c(OC)c1Cl` [Penclomedine, 3,5-dichloro-2,4-dimethoxy-6-(trichloromethyl)pyridine], the “Median % ILS (dying mice only)” value (MX-1 mammary tumor cells; 90 mg/kg/dose IP) was “+88%”, the “Tumor-Free Survival/Total” value (MX-1 mammary tumor cells; 90 mg/kg/dose IP) was 0/5 and the “Median % ILS (dying mice only)” value (MX-1 mammary tumor cells; 90 mg/kg/dose oral) was “+72%”. The “Tumor-Free Survival/Total” value (MX-1 mammary tumor cells; 90 mg/kg/dose oral) was 0/5, the “neurotoxicity versus metabolite levels” value [1] was “neurotoxicity did not increase while levels of this metabolite increased to several times the plasma levels of the parent drug” and the “neurotoxicity to mammals, especially humans” value ([1]; in vivo) was “neurotoxic to mammals, especially to humans”. The “Days to 2 Doublings” value ([2]; 60 mg/kg IP) was over 49.0 days, the “Non-Specific Deaths / Total” value ([2]; 60 mg/kg IP) was 0/5 and the “Tumor Free Survival/Total” value ([2]; 60 mg/kg IP) was 4/5. The “Tumor Delay (T-C)” value ([2]; 60 mg/kg IP) was over 41.0 days, the “Tumor Regression, Complete” value ([2]; 60 mg/kg IP) was 5 and the “Tumor Regression, Partial” value ([2]; 60 mg/kg IP) was 0. For the same molecule, the “Days to 2 Doublings” value ([2]; 90 mg/kg IP) was over 49.0 days, the “Non-Specific Deaths / Total” value ([2]; 90 mg/kg IP) was 0/5 and the “Tumor Free Survival/Total” value ([2]; 90 mg/kg IP) was 5/5. For the same molecule, the “Tumor Delay (T-C)” value ([2]; 90 mg/kg IP) was over 41.0 days, the “Tumor Regression, Complete” value ([2]; 90 mg/kg IP) was 5 and the “Tumor Regression, Partial” value ([2]; 90 mg/kg IP) was 0. The “Days to 2 Doublings” value ([2]; 135 mg/kg IP) was over 49.0 days, the “Non-Specific Deaths / Total” value ([2]; 135 mg/kg IP) was 0/5 and the “Tumor Free Survival/Total” value ([2]; 135 mg/kg IP) was 5/5. The “Tumor Delay (T-C)” value ([2]; 135 mg/kg IP) was over 41.0 days, the “Tumor Regression, Complete” value ([2]; 135 mg/kg IP) was 5 and the “Tumor Regression, Partial” value ([2]; 135 mg/kg IP) was 0. The “survival rate, compared with 4-demethylpenclomedine” value ([2]; Table 1) was “slightly higher survival rate”, the “tumor growth delay, comparison of the two compounds” value ([2]; Table 1) was “identical tumor growth delay” and the T-C (HT29 colon tumor; 135 mg/kg/dose IP) was 1.5 days. The “Tumor-Free Survival/Total” value (HT29 colon tumor; 135 mg/kg/dose IP) was 0/5, the “decline of plasma levels after infusion” value [3, 5] was “rapidly declined in an apparently biexponential fashion” and the post-infusion plasma level [3, 9] was “always less than μM”. For the same molecule, the pre-infusion plasma level [3, 9] was “barely detectable”, the “plasma level time course” value [3, 6] was “rapidly cleared from plasma” and the “α of biexponential decay” value [3, 6] was 3.88 h⁻¹. For the same molecule, the k el ([3]; in vivo, iv, human plasma, single patient, FIG. 1, read-out: β of biexponential decay (converted)) was 0.000127 s⁻¹, the T-C (MX-1 mammary tumor; 135 mg/kg/dose IP, days 12-16) was over 41.0 days and the “Tumor-Free Survival/Total” value (MX-1 mammary tumor; 135 mg/kg/dose IP, days 12-16) was 5/5. For the same molecule, the T-C (MX-1 mammary tumor; 135 mg/kg/dose IP, days 13-17) was over 38.5 days, the “Tumor-Free Survival/Total” value (MX-1 mammary tumor; 135 mg/kg/dose IP, days 13-17) was 5/5 and the T-C (MX-1 mammary tumor; 135 mg/kg/dose IP, days 15-19) was over 37.2 days. For the same molecule, the “Tumor-Free Survival/Total” value (MX-1 mammary tumor; 135 mg/kg/dose IP, days 15-19) was 5/5, the “T-C, comparison of the two compounds” value (MX-1 mammary tumor; Table 2) was “nearly identical T-C” and the “survival rate, compared with 4-demethylpenclomedine” value (MX-1 mammary tumor; Table 2) was “slightly higher survival rate”.
